In patent publication US20150322083A1, “(THIENO[2,3-b][1,5]BENZOXAZEPIN-4-YL)PIPERAZIN-1-YL COMPOUNDS AS SELECTIVE 5-HT2A INVERSE AGONISTS” (Eli Lilly and Company, priority 2014, published 2015):

Experiments:
[1] = system: sleep and locomotor activity of rats; experiment: Sleep and behavioral monitoring in rats (EEG, EMG, motion); format: in vivo; conditions: rat; for Rebound Insomnia, Adj. Mean: NREM + REM sleep in 7th-9th hours post-treatment; for Rebound Insomnia, Adj. Mean / REM inhibition, Adj. Mean / Cumulative NREM sleep, Adj. Mean / Cumulative Total sleep, Adj. Mean / Locomotor Activity Intensity, Adj. Mean: difference from vehicle; for REM inhibition, Adj. Mean: REM sleep in first 12 hr. post-treatment; for Average Sleep Bout, Adj. Mean / Longest Sleep Bout / Cumulative NREM sleep, Adj. Mean / Cumulative Total sleep, Adj. Mean / Locomotor Activity Intensity, Adj. Mean: first 6 hr. post-treatment
Source text: Sleep and behavioral monitoring in rats: The compounds of the present invention may be tested in rats for their ability to increase the amount of sleep or decrease sleep interruption or both without undesired effects such as inhibition of REM sleep, waking motor impairment, and/or rebound insomnia. Test animals are continuously monitored by electro-encephalograms (EEG), electromyograms (EMG), and motion to measure cumulative nonREM sleep, cumulative total sleep, average sleep bout duration, longest sleep bout duration, rebound insomnia, REM sleep inhibition and locomotor activity intensity during wakefulness. Methods for such studies are known in the art (see for example methods described in Edgar D M, Seidel W F. Modafinil induces wakefulness without intensifying motor activity or subsequent rebound hypersomnolence in the rat. J Pharmacology & Experimental Therapeutics 1997; 283: 757-769; van Gelder R N, Edgar D M, Dement W C. Real-time automated sleep scoring: validation of a microcomputer-based system for mice. Sleep 1991, 14: 48-55; and Gross B A, Walsh C M, Turakhia A A, Booth V, Mashour G A, Poe G R. Open-source logic-based automated sleep scoring software using electrophysiological recordings in rats. J Neurosci Methods. 2009; 184(1):10-8.) Studies are conducted as follows:
Animal preparation. Adult, male Wistar rats (approximately 270-300 g at time of surgery) are surgically fitted for chronic recording of EEG, EMG, and motion as follows: Rats are surgically prepared with a cranial implant consisting of four stainless steel screws for EEG recording (two frontal [3.9 mm anterior from bregma, and ±2.0 mm mediolaterally] and two occipital [6.4 mm posterior from bregma, ±5.5 mm mediolaterally]), and with two Teflon-coated stainless steel wires for EMG recording (positioned under the nuchal trapezoid muscles). All leads are soldered to a miniature connector (Microtech, Boothwyn, Pa.) prior to surgery. The implant assembly is affixed to the skull by the combination of the stainless steel EEG recording screws, cyanoacrylate applied between the implant connector and skull, and dental acrylic. Locomotor activity is monitored via a miniature transmitter (Minimitter PDT4000G, Philips Respironics, Bend, Oreg.) surgically placed into the abdomen. At least 3 weeks are allowed for recovery.
Recording environment. Each rat is housed individually within a microisolator cage modified with an inserted polycarbonate filter-top riser to allow more vertical headroom. A flexible cable that minimally restricts movement is connected at one end to a commutator afixed to the cage top and at the other end to the animal's cranial implant. Each cage is located within separate, ventilated compartments of a stainless steel sleep-wake recording chamber. Food and water are available ad libitum and the ambient temperature is maintained at about 23±1° C. A 24-hr light-dark cycle (LD 12:12) using fluorescent light is maintained throughout the study. Relative humidity averages approximately 50%. Animals are undisturbed for at least 30 hrs before and after each treatment.
Study design and dosing. The vehicle (placebo, methylcellulose 15 centipoise 0.25% in water) or one of the test compound dose levels is administered orally at 1 mL/kg pseudo-randomly such that no rat receives the same treatment twice, and no rat receives more than two of the 8 treatments in any one study. Each rat is removed from its cage for about a minute to be weighed and treated. At least 6 days “washout” period precede and follow each treatment.
Data collection. […]

[2] = target: 5-HT7 receptors (Homo sapiens, UniProt P34969); experiment: 5-HT7 binding
Protocol: Curves are evaluated using a 4-parameter logistic nonlinear equation to obtain the concentration of competitor causing 50% inhibition of radioligand binding (IC50). Equilibrium dissociation constants (Ki) are calculated according to the equation Ki=IC50/(1+L/Kd), where L equals the concentration of radioligand used in the experiment and Kd equals the equilibrium dissociation constant of the radioligand for the receptor, determined from standard saturation analysis or homologous competition experiments. Reported values for Ki, where n values are indicated, are shown as geometric mean±the standard error of the mean (SEM), with the number of replicate determinations indicated by n. Geometric means are calculated by the equation GeoMean=10̂(Average(log Ki 1+log Ki 2+ . . . log Ki n)/[…]).
Further, the compounds of the invention may be tested in binding assays and functional activity assays by well known methods for other physiologically important receptors such as, but not limited to, the hERG channel, other serotonin receptors (specifically 5-HT1B receptors, lack of agonist activity at 5-HT2B receptors, 5-HT2C, 5-HT5, 5-HT6, and 5-HT7 receptors), dopaminergic receptors (specifically D1, D2, and D3), H1 receptors, GABAA receptors, adrenergic receptors and monoamine transporters.

[3] = PO, 6 hr. after treatment, 4 parameter logistic regression

Sequence of 5-HT7 receptors (P34969 whole entry): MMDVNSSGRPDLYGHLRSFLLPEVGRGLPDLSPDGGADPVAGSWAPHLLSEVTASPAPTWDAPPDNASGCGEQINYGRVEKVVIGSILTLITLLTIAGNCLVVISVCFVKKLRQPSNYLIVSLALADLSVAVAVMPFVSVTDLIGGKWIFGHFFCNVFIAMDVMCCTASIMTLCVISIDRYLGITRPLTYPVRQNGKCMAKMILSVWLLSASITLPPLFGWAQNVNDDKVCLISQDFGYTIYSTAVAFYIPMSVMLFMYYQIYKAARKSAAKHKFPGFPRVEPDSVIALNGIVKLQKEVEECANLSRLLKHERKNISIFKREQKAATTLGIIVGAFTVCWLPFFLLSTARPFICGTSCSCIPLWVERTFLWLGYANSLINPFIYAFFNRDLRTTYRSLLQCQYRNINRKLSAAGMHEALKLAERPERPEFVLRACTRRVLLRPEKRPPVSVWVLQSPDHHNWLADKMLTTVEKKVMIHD

For `Cc1ccc2c(c1)Oc1sc(SC(C)C)cc1C(N1CCN(CC(C)(C)C(=O)O)CC1)=N2` [Example 1, 3-[4-(2-isopropylsulfanyl-8-methyl-thieno[2,3-b][1,5]benzoxazepin-4-yl)piperazin-1-yl]-2,2-dimethyl-propanoic acid], which “Rebound Insomnia, Adj. Mean” value ([1]; 0.1 mg/kg PO) is on record?
The value was -0.4 min.

And the “REM inhibition, Adj. Mean” value ([1]; 0.1 mg/kg PO)?
The value was 0.5 min.

And the “Average Sleep Bout, Adj. Mean” value ([1]; 0.1 mg/kg PO)?
Its value is 1.09 n-fold increase over vehicle controls.

And the “Longest Sleep Bout” value ([1]; 0.1 mg/kg PO)?
Its value is 0.85 n-fold increase over vehicle controls.

What about the “Cumulative NREM sleep, Adj. Mean” value ([1]; 0.1 mg/kg PO) of the same compound?
The value was 14.6 min.

What about the “Cumulative Total sleep, Adj. Mean” value ([1]; 0.1 mg/kg PO) of the same compound?
The value was 13.1 min.

What about the “Locomotor Activity Intensity, Adj. Mean” value ([1]; 0.1 mg/kg PO) of the same compound?
The value was −1.31 LMA counts per minute of EEG-defined wakefulness.

And the “Rebound Insomnia, Adj. Mean” value ([1]; 0.25 mg/kg PO)?
The value was -1.0 min.

What about the “REM inhibition, Adj. Mean” value ([1]; 0.25 mg/kg PO) of the same compound?
Its value is 1.4 min.

What about the “Average Sleep Bout, Adj. Mean” value ([1]; 0.25 mg/kg PO) of the same compound?
Its value is 1.32 n-fold increase over vehicle controls.

What about the “Longest Sleep Bout” value ([1]; 0.25 mg/kg PO) of the same compound?
The value was 1.49 n-fold increase over vehicle controls.

And the “Cumulative NREM sleep, Adj. Mean” value ([1]; 0.25 mg/kg PO)?
Its value is 17.8 min.

What about the “Cumulative Total sleep, Adj. Mean” value ([1]; 0.25 mg/kg PO) of the same compound?
Its value is 21.1 min.

And the “Locomotor Activity Intensity, Adj. Mean” value ([1]; 0.25 mg/kg PO)?
Its value is −1.22 LMA counts per minute of EEG-defined wakefulness.

And the “Rebound Insomnia, Adj. Mean” value ([1]; 0.5 mg/kg PO)?
Its value is 4.4 min.

What about the “REM inhibition, Adj. Mean” value ([1]; 0.5 mg/kg PO) of the same compound?
The value was 6.6 min.

What about the “Average Sleep Bout, Adj. Mean” value ([1]; 0.5 mg/kg PO) of the same compound?
Its value is 1.75 n-fold increase over vehicle controls.

And the “Longest Sleep Bout” value ([1]; 0.5 mg/kg PO)?
Its value is 1.79 n-fold increase over vehicle controls.

What about the “Cumulative NREM sleep, Adj. Mean” value ([1]; 0.5 mg/kg PO) of the same compound?
The value was 24.1 min.

What about the “Cumulative Total sleep, Adj. Mean” value ([1]; 0.5 mg/kg PO) of the same compound?
The value was 28.2 min.

What about the “Locomotor Activity Intensity, Adj. Mean” value ([1]; 0.5 mg/kg PO) of the same compound?
Its value is −1.49 LMA counts per minute of EEG-defined wakefulness.

What about the “Rebound Insomnia, Adj. Mean” value ([1]; 1 mg/kg PO) of the same compound?
The value was 1.5 min.

What about the “REM inhibition, Adj. Mean” value ([1]; 1 mg/kg PO) of the same compound?
Its value is 5.6 min.

And the “Average Sleep Bout, Adj. Mean” value ([1]; 1 mg/kg PO)?
Its value is 1.71 n-fold increase over vehicle controls.

What about the “Longest Sleep Bout” value ([1]; 1 mg/kg PO) of the same compound?
Its value is 1.89 n-fold increase over vehicle controls.

And the “Cumulative NREM sleep, Adj. Mean” value ([1]; 1 mg/kg PO)?
Its value is 30.0 min.

What about the “Cumulative Total sleep, Adj. Mean” value ([1]; 1 mg/kg PO) of the same compound?
Its value is 31.4 min.

And the “Locomotor Activity Intensity, Adj. Mean” value ([1]; 1 mg/kg PO)?
Its value is −4.04 LMA counts per minute of EEG-defined wakefulness.

What about the “Rebound Insomnia, Adj. Mean” value ([1]; 3 mg/kg PO) of the same compound?
The value was 8.8 min.

And the “REM inhibition, Adj. Mean” value ([1]; 3 mg/kg PO)?
The value was -1.4 min.

What about the “Average Sleep Bout, Adj. Mean” value ([1]; 3 mg/kg PO) of the same compound?
Its value is 1.75 n-fold increase over vehicle controls.

And the “Longest Sleep Bout” value ([1]; 3 mg/kg PO)?
Its value is 2.17 n-fold increase over vehicle controls.

And the “Cumulative NREM sleep, Adj. Mean” value ([1]; 3 mg/kg PO)?
The value was 31.5 min.

What about the “Cumulative Total sleep, Adj. Mean” value ([1]; 3 mg/kg PO) of the same compound?
Its value is 32.8 min.

What about the “Locomotor Activity Intensity, Adj. Mean” value ([1]; 3 mg/kg PO) of the same compound?
Its value is −1.86 LMA counts per minute of EEG-defined wakefulness.

And the “Rebound Insomnia, Adj. Mean” value ([1]; 10 mg/kg PO)?
Its value is 2.5 min.

And the “REM inhibition, Adj. Mean” value ([1]; 10 mg/kg PO)?
Its value is -4.4 min.

What about the “Average Sleep Bout, Adj. Mean” value ([1]; 10 mg/kg PO) of the same compound?
The value was 2.01 n-fold increase over vehicle controls.

And the “Longest Sleep Bout” value ([1]; 10 mg/kg PO)?
The value was 2.29 n-fold increase over vehicle controls.

And the “Cumulative NREM sleep, Adj. Mean” value ([1]; 10 mg/kg PO)?
Its value is 38.3 min.

And the “Cumulative Total sleep, Adj. Mean” value ([1]; 10 mg/kg PO)?
Its value is 39.1 min.

What about the “Locomotor Activity Intensity, Adj. Mean” value ([1]; 10 mg/kg PO) of the same compound?
The value was −1.90 LMA counts per minute of EEG-defined wakefulness.

What about the “Rebound Insomnia, Adj. Mean” value ([1]; 20 mg/kg PO) of the same compound?
The value was 2.1 min.

And the “REM inhibition, Adj. Mean” value ([1]; 20 mg/kg PO)?
Its value is -9.3 min.

And the “Average Sleep Bout, Adj. Mean” value ([1]; 20 mg/kg PO)?
Its value is 1.88 n-fold increase over vehicle controls.

What about the “Longest Sleep Bout” value ([1]; 20 mg/kg PO) of the same compound?
The value was 1.90 n-fold increase over vehicle controls.

What about the “Cumulative NREM sleep, Adj. Mean” value ([1]; 20 mg/kg PO) of the same compound?
The value was 40.2 min.

What about the “Cumulative Total sleep, Adj. Mean” value ([1]; 20 mg/kg PO) of the same compound?
Its value is 38.0 min.

And the “Locomotor Activity Intensity, Adj. Mean” value ([1]; 20 mg/kg PO)?
Its value is −0.59 LMA counts per minute of EEG-defined wakefulness.

What about the “apparent LMI impairment (in words)” value ([1]; 1 mg/kg PO) of the same compound?
The value was “statistically significant at that dose”.

And the “REM sleep inhibition versus threshold value of -10 min. (in words)” value ([1]; 20 mg/kg PO)?
The value was “exceeded the threshhold value”.

What about the “effect on cumulative NREM sleep time and cumulative total sleep time (in words)” value ([1]; PO) of the same compound?
The value was “statistically significant increase”.

And the “Estimated efficacy dose, Average sleep bout (1.5-fold increase)” value [1, 3]?
Its value is 0.33 mg/kg.

And the “Estimated efficacy dose, Longest sleep bout (1.75-fold increase)” value [1, 3]?
The value was 0.45 mg/kg.

And the “Estimated efficacy dose, NREM accumulation = 30 min.” value [1, 3]?
The value was 1.5 mg/kg.

What about the “Estimated efficacy dose, Total sleep accumulation = 25 min.” value [1, 3] of the same compound?
Its value is 0.39 mg/kg.

And the “rebound insomnia or REM sleep inhibition (in words)” value ([1]; PO, at up to 10 times the conservative efficacy dose)?
Its value is “without statistically significant rebound insomnia or REM sleep inhibition”.

What about the Ki [2] of the same compound?
The Ki was over 2060 nM.
